Experimental findings from publication PMC8399847, “Hybrid Quinolinyl Phosphonates as Heterocyclic Carboxylate Isosteres: Synthesis and Biological Evaluation against Topoisomerase 1B (TOP1B)” (Pharmaceuticals, 2021) are described below.

Test [1] relates to HEK293 (human embryonic kidney). Description: CCK-8 cytotoxicity assay, HEK293. The format is cell-based. The following applies: HEK293, 48 h, CCK-8, 50% growth inhibition. As to the method:
The cytotoxicity of the newly synthesized quinolinylphosphonates 7 was evaluated in vitro by testing their antiproliferative activities against several human cancer cell lines: A549 (human lung adenocarcinoma cells), SKOV3 (human ovarian carcinoma), and HEK293 (human embryonic kidney). In order to analyze the selective cytotoxicity facing exclusively cancerous cell lines, cytotoxicity against non-cancerous cell lines (MRC-5, lung fibroblast cells) was also evaluated. Cell counting kit (CCK-8) assay was employed to assess growth inhibition and, cell proliferation inhibitory activities of compounds that are listed in Table 1 as IC50 values. […] According to the data presented in Table 1, in general, all these phosphorated derivatives present higher selective cytotoxicity in the A549 cell line than in the other two cell lines, SKOV3 and HEK293, although slight differences are observed compared to human ovarian carcinoma (SKOV3).
Cells were cultured according to the supplier’s instructions, A549 (ATCC® CCL-185), SKOV3 (ATCC® HTB-77), HEK293 (CLS GmbH), MRC-5 (ATCC® CCL-171™). Cells were seeded in 96-well plates at a density of 2–2.5 × 10^3 cells per well and incubated overnight in 0.1 mL of media supplied with 10% Fetal Bovine Serum (Lonza, Basel, Switzerland) in a 5% CO2 incubator at 37 °C. On day 2, drugs (concentration between 0.5–50 μM) were added and samples were incubated for 48 h. After treatment, 10 μL of cell counting kit-8 was added to each well for an additional 2 h incubation at 37 °C. The absorbance of each well was determined by an Automatic Elisa Reader System at 450 nm wavelength. CPT was purchased from Sigma-Aldrich and used as a positive control.
(Formazan colour is commonly taken as a measure of viable cells.)

The subject of another test is murine splenocytes. Description: Splenocyte viability, Alamar Blue. The format is cell-based, BALB/c mice. The following applies: for IC50: Mus musculus, Splenocyte, read-out: IC50 Splenocites; for SI (selectivity index): ratio IC50 splenic cells / EC50 amastigotes. As to the method: The viability of splenocytes cells against the different compounds was measured using the Alamar Blue staining method (Invitrogen, MA, USA). For this purpose, these cells were obtained following the protocol indicated in the previous section, from uninfected mice. Plots of absorbance of viable cells (obtained following manufacturer’s recommendations of Alamar Blue) vs compounds concentration were used to calculate CC50 values. Plots were fitted by nonlinear analysis using the Sigma Plot 10.1 statistical package. The assays were performed by triplicate.
The selectivity index for each compound was calculated as the ratio between the IC50 value for splenic cells and the EC50 value for amastigotes.
(In general: Resazurin is reduced to fluorescent resorufin, in cell work by metabolically active cells.)

In a further test the test system is L. infantum amastigotes. Description: Ex vivo murine splenic explant culture, intramacrophage amastigotes. The test is classed as cell-based. The following applies: Leishmania infantum, Hec50; intramacrophage amastigotes in splenic explants, 96 h, EC50 ± SD. As to the method:
The effect of the new quinolinylphosphonate derivatives 7 synthesized was assessed on both free-living promastigotes and intramacrophage amastigotes of L. infantum as it is described in experimental protocols. Primary cultures of intramacrophage amastigotes were obtained from splenic explants from 6-weeks infected Balb/c mice with L. infantum-iRFP promastigotes. The infrared fluorescence emitted by both stage forms of the parasite was used as viability criterium, using 0.5% DMSO as negative control (100% viability) and […] AMB as a positive control (0% viability).
The EC50 values of compounds against the amastigote forms were calculated using a cell suspension obtained from spleens extracted from BALB/c mice. Mice had been infected previously with iRFP L. infantum metacyclic promastigotes and sacrificed five weeks after infection. To obtain the cell suspension containing amastigotes, spleens washed with cold phosphate-buffered saline (PBS), were cut into pieces, and incubated with 5 mL of 2 mg/mL collagenase D (Sigma, Darmstadt, Germany), which was prepared in buffer (10 mM HEPES, pH 7.4, 150 mM NaCl, 5 mM KCl, 1 mM MgCl2 and 1.8 mM CaCl2) for 20 min. Subsequently, these cells were passed through a 100 µm cell strainer, collected by centrifugation (500× g for 7 min at 4 °C), washed twice with PBS, and suspended in RPMI medium (Gibco, Thermo Fisher Scientific, MA, USA) supplemented with 10 mM HEPES, 1 mM sodium pyruvate, 1xRPMI 1640 vitamin mix, 10% (v/v) FBS, 50 U/mL penicillin and 50 µg/mL streptomycin, at 37 °C under a 5% CO2 atmosphere.
To assay the effect of the different compounds against amastigotes, which infect splenic cells, these cells were seeded to confluence into 384-well black optical bottom plates (Thermo Scientific, Waltham, MA, USA) in addition to different concentrations of compound to each well. The viability of amastigotes was calculated by recording their fluorescence at 708 nm in an Odyssey (Li-Cor, NE, USA) infrared imaging system, after 96 h of exposure. Plots of the infrared fluorescence against the concentrations of tested compounds were fitted by nonlinear analysis using the Sigma Plot 10.1 statistical package and used to calculate EC50 values. As well as promastigotes viability, the assays were performed in triplicate.

In general, IC50 refers to the concentration that inhibits the measured activity by half. A word on the EC50: it is the concentration that produces a half-maximal response. Read a low EC50 as a more potent agent. Consider `CCOP(=O)(OCC)c1cccc2c(-c3ccccc3)cc(-c3ccccc3)nc12` [7a, Diethyl (2,4-diphenylquinolin-8-yl)phosphonate], for which the midpoint of inhibition in test [1], the IC50, lay at 27.3 ± 2.22 µM. Besides, in the test on murine splenocytes, the IC50 was determined as 3.61 ± 0.45 µM and the “SI (selectivity index)” value is 0.9. The same molecule yielded a concentration giving a half-maximal response (EC50) with L. infantum amastigotes of 4.03 ± 0.3 µM.
`CCOP(=O)(OCC)c1cccc2c(-c3ccccc3)cc(-c3ccc(F)cc3)nc12` [7b, Diethyl (4-Phenyl-2-(fluorophenyl)quinolin-8-il) phosphonate]: in test [1], half-maximal inhibition (IC50) was put at 43 ± 4.65 µM. Further, in the test with murine splenocytes, the IC50 amounted to 12.2 ± 1.77 µM and the “SI (selectivity index)” value is on record as 0.8. In the test on L. infantum amastigotes, this molecule came in with an EC50 of 14.6 ± 1.3 µM.
In test [1], `CCOP(=O)(OCC)c1cccc2c(-c3ccccc3)cc(-c3ccc(OC)cc3)nc12` [7c, Diethyl (2-(4-methoxyphenyl)-4-phenylquinolin-8-yl)phosphonate] had an IC50 of 38.3 ± 8.9 µM. Besides, in the test with murine splenocytes, the IC50 turned out to be 15.9 ± 1.65 µM and the “SI (selectivity index)” value was 1.9. Besides, the EC50 with L. infantum amastigotes was determined as 8.23 ± 1.7 µM.
For `CCOP(=O)(OCC)c1cccc2c(-c3ccccc3)cc(-c3ccccc3OC)nc12` [7d, Diethyl (2-(2-methoxyphenyl)-4-phenylquinolin-8-yl)phosphonate], in test [1], the IC50 is > 50 µM. In addition, in the test on murine splenocytes, the IC50 was 30.1 ± 6.05 µM and the “SI (selectivity index)” value was found to be 1.5. For the same molecule, the response in the test on L. infantum amastigotes was half-maximal at 19.5 ± 2.38 µM (EC50).
Regarding `CCOP(=O)(OCC)c1cccc2c(-c3ccccc3)cc(-c3ccc4ccccc4c3)nc12` [7e, Diethyl (2-(naphthalen-2-yl)-4-phenylquinolin-8-yl)phosphonate], the half-inhibitory concentration (IC50) in test [1] was 48.1 ± 6.39 µM. Further, in the test with murine splenocytes, the IC50 amounted to 51.6 ± 1.52 µM and the “SI (selectivity index)” value came out at 2.5. In the test with L. infantum amastigotes, this molecule gave an EC50 of 20.4 ± 5.62 µM.
With `CCOP(=O)(OCC)c1cccc2c(-c3ccccc3)cc(-c3cccc4ccccc34)nc12` [7f, Diethyl (2-(naphthalen-1-yl)-4-phenylquinolin-8-yl)phosphonate], the IC50 in test [1] amounted to 35.7 ± 3.13 µM; in the test on murine splenocytes it was 12.2 ± 1.49 µM. Further, in the test on murine splenocytes, the “SI (selectivity index)” value is recorded as 0.6. Moreover, in the test with L. infantum amastigotes, the EC50 amounted to 19.7 ± 2.39 µM.
`CCOP(=O)(OCC)c1cccc2c(-c3ccc(F)cc3)cc(-c3ccccc3)nc12` [7g] yielded a concentration for half-maximal inhibition (IC50) in test [1] of 24.4 ± 3.46 µM. In the test on murine splenocytes, the IC50 was 33.9 ± 7.98 µM and the “SI (selectivity index)” value is listed as 2.8. Besides, the EC50 in the test on L. infantum amastigotes stood at 11.9 ± 5.17 µM.
For the molecule `CCOP(=O)(OCC)c1cccc2c(-c3ccc(F)cc3)cc(-c3ccc(F)cc3)nc12` [7h, Diethyl (2,4-bis(4-fluorophenyl)quinolin-8-yl)phosphonate], inhibition in test [1] was half-maximal at 15.7 ± 1.74 µM (IC50). In the test on murine splenocytes, the IC50 was determined as 20.3 ± 7.49 µM and the “SI (selectivity index)” value amounted to 0.8. This molecule also gave a 50% effective concentration (EC50) in the test with L. infantum amastigotes of 24.2 ± 2.37 µM.
The matching figures for `CCOP(=O)(OCC)c1cccc2c(-c3ccc(F)cc3)cc(-c3ccc(F)c(F)c3)nc12` [7i, Diethyl (2-(3,4-difluorophenyl)-4-(4-fluorophenyl)quinolin-8-yl)phosphonate]: > 50 µM, 20.6 ± 3.11 µM, 1.5 and 13.4 ± 5.53 µM.
In the case of `CCOP(=O)(OCC)c1cccc2c(-c3ccc(C)cc3)cc(-c3ccc(F)cc3)nc12` [7j, Diethyl (2-(4-fluorophenyl)-4-(p-tolyl)quinolin-8-yl)phosphonate], the results for the IC50 (in test [1]; in the test on murine splenocytes) were > 50 µM and 14.5 ± 1.56 µM, respectively. For the same molecule, in the test on murine splenocytes, the “SI (selectivity index)” value was 1.5. For the same molecule, the concentration giving a half-maximal response (EC50) with L. infantum amastigotes turned out to be 9.8 ± 0.48 µM.
The matching figures for `CCOP(=O)(OCC)c1cccc2c(-c3ccc(C)cc3)cc(-c3ccc(F)c(F)c3)nc12` [7k, Diethyl (2-(3,4-difluorophenyl)-4-(p-tolyl)quinolin-8-yl)phosphonate]: 22.3 ± 1.36 µM, 24.1 ± 7.79 µM, 0.9 and 26.2 ± 3.65 µM.
Take `CC(C)OP(=O)(OC(C)C)c1cccc2c(-c3ccccc3)cc(-c3ccc(F)cc3)nc12` [7l, Diisopropyl (2-(4-fluorophenyl)-4-phenylquinolin-8-yl)phosphonate]: in test [1], the IC50 was 10.1 ± 1.26 µM. For the same molecule, in the test on murine splenocytes, the IC50 amounted to 22.1 ± 4.7 µM and the “SI (selectivity index)” value amounted to 1.1. In the test on L. infantum amastigotes, the EC50 turned out to be 19.5 ± 2.23 µM.
The matching figures for `CC(C)OP(=O)(OC(C)C)c1cccc2c(-c3ccccc3)cc(-c3ccc(F)c(F)c3)nc12` [7m, Diisopropyl (2-(3,4-difluorophenyl)-4-phenylquinolin-8-yl)phosphonate]: > 50 µM, 19.8 ± 3.76 µM, 1.9 and 10.2 ± 1.34 µM.
`CC(C)OP(=O)(OC(C)C)c1cccc2c(-c3ccc(F)cc3)cc(-c3ccc(F)cc3)nc12` [7n, Diisopropyl (2,4-bis(4-fluorophenyl)quinolin-8-yl)phosphonate]: in test [1], inhibition was half-maximal at 15 ± 0.99 µM (IC50). Besides, in the test with murine splenocytes, the half-maximal inhibitory concentration (IC50) turned out to be 15.3 ± 1.72 µM and the “SI (selectivity index)” value is reported as 2.8. In the test on L. infantum amastigotes, this molecule had an EC50 of 5.52 ± 1.11 µM.
Consider `CC(C)OP(=O)(OC(C)C)c1cccc2c(-c3ccc(F)cc3)cc(-c3ccc(F)c(F)c3)nc12` [7o, Diisopropyl (2-(3,4-difluorophenyl)-4-(4-fluorophenyl)quinolin-8-yl)phosphonate], for which inhibition in test [1] was half-maximal at 21 ± 4.05 µM (IC50). Further, in the test on murine splenocytes, the IC50 came out at 18.6 ± 1.1 µM and the “SI (selectivity index)” value is 0.9. In addition, the EC50 in the test on L. infantum amastigotes came out at 19.7 ± 1.73 µM.
The molecule `Cc1ccc(-c2cc(-c3ccc(F)cc3)nc3c(P(=O)(OC(C)C)OC(C)C)cccc23)cc1` [7p, Diisopropyl (2-(4-fluorophenyl)-4-(p-tolyl)quinolin-8-yl)phosphonate] came in with an IC50 in test [1] of 14.4 ± 1.69 µM. Also, in the test with murine splenocytes, the IC50 was 21.2 ± 3.5 µM and the “SI (selectivity index)” value was 0.9. The molecule also showed an EC50 in the test on L. infantum amastigotes of 24.3 ± 2.53 µM.
On to `Cc1ccc(-c2cc(-c3ccc(F)c(F)c3)nc3c(P(=O)(OC(C)C)OC(C)C)cccc23)cc1` [7q, Diisopropyl (2-(3,4-difluorophenyl)-4-(p-tolyl)quinolin-8-yl)phosphonate], for which 12.3 ± 0.71 µM corresponded to half-maximal inhibition in test [1] (IC50). Besides, in the test with murine splenocytes, the IC50 was determined as 28.3 ± 9.16 µM and the “SI (selectivity index)” value is reported as 2. Further, the EC50 with L. infantum amastigotes came to 13.9 ± 3.65 µM.
`CCOP(=O)(OCC)c1ccc2nc(-c3ccc(F)cc3)cc(-c3ccccc3)c2c1` [7r, Diethyl (2-(4-fluorophenyl)-4-phenylquinolin-6-yl)phosphonate]: inhibition in test [1] was half-maximal at 36.9 ± 8.06 µM (IC50). In the test with murine splenocytes, the IC50 is 28.1 ± 1.23 µM and the “SI (selectivity index)” value is recorded as 1. In the test with L. infantum amastigotes, this molecule came in with a half-maximal effective concentration (EC50) of 29.2 ± 14 µM.
For the molecule `CCOP(=O)(OCC)c1ccc2nc(-c3ccc(F)c(F)c3)cc(-c3ccccc3)c2c1` [7s, Diethyl (2-(3,4-difluorophenyl)-4-phenylquinolin-6-yl)phosphonate], the IC50 was determined as 19.2 ± 1.13 µM in test [1] and 26.2 ± 0.51 µM in the test on murine splenocytes. In the test with murine splenocytes, the “SI (selectivity index)” value worked out at 1.8. Moreover, it took 14.2 ± 2.83 µM to reach a half-maximal effect in the test with L. infantum amastigotes (EC50).
For the molecule `CCOP(=O)(OCC)c1ccc2nc(-c3ccc(F)cc3)cc(-c3ccc(F)cc3)c2c1` [7t, Diethyl (2,4-bis(4-fluorophenyl)quinolin-6-yl)phosphonate], in test [1], the IC50 is > 50 µM. Also, in the test on murine splenocytes, the IC50 is 45 ± 10.2 µM and the “SI (selectivity index)” value was determined as 1.4. Moreover, the EC50 in the test on L. infantum amastigotes was determined as 31.5 ± 2.71 µM.
